In patent US20200216493A1, “ANTIMICROBIAL PEPTIDES” (FERRING B.V., priority 2016, published 2020):
Converted amounts (≈) assume the structure as drawn. Like-named read-outs stand apart in the source and are kept apart here. Bridge positions count the residues as written; N and C are the ends. Square brackets hold non-standard residues; d marks the D form. Peptide text beside a SMILES is read from it. 1Nal = N[C@@H](Cc1cccc2ccccc12)C(=O)O; d(aIle) = CC[C@H](C)[C@@H](N)C(=O)O; dNMeF = CN[C@H](Cc1ccccc1)C(=O)O; hArg = N=C(N)NCCCC[C@H](N)C(=O)O

What was measured:
S.aureus = type: cell-based, Staphylococcus aureus
Protocol: (§1) This assay was used to determine the minimum concentration of a test compound (i.e., an antimicrobial peptide described herein) able to inhibit the growth of a bacterial strain of interest. This is a standard method for measuring and comparing the potency of peptide-based antibacterial agents (Steinberg et al., Antimicrobial Agents and Chemotherapy 1997, 41 (8) 1738 - 1742 and Wiegand et al., Nature Protocols 2008, 3, 163-175).
(§2) The MIC is reported in units of μg/mL.
(§3) Bacterial cultures were grown by inoculating Mueller-Hinton Broth (MHB) with 3 or 4 representative colony (typical size, color, and shape) from a bacterial strain grown on a LB agar plate. Inoculated liquid cultures were grown at 37° C. with moderate shaking (200-250 rpm) until bacteria produced a visibly turbid suspension. Bacterial inoculum was approximated by measuring the optical density at 600 nm (0D600) of the bacterial culture against a sterile MHB blank. Typically, OD600=0.10 corresponds to ˜1×10^8 cfu/mL for S.aureus and OD600 =0.15 corresponds to ˜1×10^8 cfu/mL for E.coli.
(§4) Test compounds were prepared as stock solutions in vehicle at a concentration 10 times the highest concentration to be tested for antibacterial activity (usually 320 μg/mL stock solutions). 2x serial dilutions in vehicle (at 10× the final test concentrations) of the test compounds were prepared from the test compound stock solutions in a non-binding 96 well plate.
(§5) In a sterile clear flat bottom 96 well plate, 15 μL of each test compound dilution was added to 135 μL of ˜5×10^5 cfu/mL bacterial culture. Each concentration was tested in duplicate. Each experiment contained positive control wells for bacterial growth (i.e., no test compound added to bacteria) and sterility controls wells (i.e., sterile MHB and no test compounds added). 96 well plates containing bacterial cultures and test compounds were incubated at 37° C. for 16-20 hours with shaking at 200 rpm.
(§6) After incubation, the MIC of each test compound was determined by measuring the OD600 of each well using a plate reader. Wells with OD600 >0.08 were considered to have bacterial growth and wells with OD600<0.08 were considered to have no bacterial growth. The lowest concentration of test agent able to inhibit bacterial growth (0D600<0.08 after 16-20 hours) was defined as the MIC.

E.coli = type: cell-based, Escherichia coli; conditions: for MIC ratio Coli/Staph: ratio of E. coli MIC to S. aureus MIC
Protocol: as §1, §2, §3, §4, §5, §6

[1] = broth microdilution, Example 17a

Row | MIC S. aureus (S.aureus) [µg/mL] | MIC E. coli (E.coli) [µg/mL] | MIC ratio Coli/Staph (E.coli) | MIC B. fragilis (B. fragilis) [µg/mL] | MIC C. difficile (C. difficile) [µg/mL] | MIC C. difficile (C. difficile; anaerobic broth microdilution, read after 44-48 hours, Example 17b) [µg/mL] | Structure (SMILES) | MIC S. aureus (S.aureus; [1]) [µg/mL] | MIC E. coli (E.coli; [1]) [µg/mL]
1 | 0.09 (≈ 0.0678 µM) | >32 | >356 |  |  |  | CC[C@H](C)[C@H](NC(=O)[C@@H](Cc1ccccc1)NC)C(=O)N[C@@H](Cc1cccc2ccccc12)C(=O)N[C@H](CCC(N)=O)C(=O)N[C@@H](C(=O)N[C@H](C(=O)N[C@@H](CO)C(=O)N[C@H]1C(=O)N[C@@H](C)C(=O)N[C@@H](CCCCN)C(=O)N[C@@H]([C@@H](C)CC)C(=O)O[C@H]1C)[C@@H](C)CC)[C@@H](C)CC [Compound 3, H-D-MePhe-Ile-1Nal-D-Gln-D-aIle-Ile-Ser-c(D-Thr-Ala-Lys-Ile)] (H-[dNMeF]I[1Nal][dQ][d(aIle)]IS[dT]AKI; ester 8-C) |  | 
2 | 0.25 to 0.5 | >16 | >64 | >32 | 0.12 (≈ 0.0964 µM) |  | CC[C@H](C)[C@H](NC(=O)[C@@H](Cc1ccccc1)NC)C(=O)N[C@@H](CO)C(=O)N[C@H](CCC(N)=O)C(=O)N[C@@H](C(=O)N[C@H](C(=O)N[C@@H](CO)C(=O)N[C@H]1C(=O)N[C@@H](C)C(=O)N[C@@H](CCCNC(=N)N)C(=O)N[C@@H]([C@@H](C)CC)C(=O)O[C@H]1C)[C@@H](C)CC)[C@@H](C)CC [Arg10-teixobactin] |  | 
3 | 0.09 (≈ 0.0663 µM) | >32 | >356 | >32 | 0.06 (≈ 0.0442 µM) |  | CC[C@H](C)[C@H](NC(=O)[C@@H](Cc1ccccc1)NC)C(=O)N[C@@H](Cc1c[nH]c2ccccc12)C(=O)N[C@H](CCC(N)=O)C(=O)N[C@@H](C(=O)N[C@H](C(=O)N[C@@H](CO)C(=O)N[C@H]1C(=O)N[C@@H](C)C(=O)N[C@@H](CCCCNC(=N)N)C(=O)N[C@@H]([C@@H](C)CC)C(=O)O[C@H]1C)[C@@H](C)CC)[C@@H](C)CC [Compound 2, H-D-MePhe-Ile-Trp-D-Gln-D-aIle-Ile-Ser-c(D-Thr-Ala-Har-Ile)] |  | 
4 | 0.13 (≈ 0.105 µM) | 8 (≈ 6.47 µM) | 62 | >32 | 0.06 to 0.12 |  | CC[C@H](C)[C@H](NC(=O)[C@H](N)Cc1ccc(Cl)cc1)C(=O)N[C@@H](CO)C(=O)N[C@H](CCC(N)=O)C(=O)N[C@@H](C(=O)N[C@H](C(=O)N[C@@H](CO)C(=O)N[C@H]1C(=O)N[C@@H](C)C(=O)N[C@@H](CCCCN)C(=O)N[C@@H]([C@@H](C)CC)C(=O)O[C@H]1C)[C@@H](C)CC)[C@@H](C)CC [Compound 4, H-D-Phe(4-Cl)-Ile-Ser-D-Gln-D-aIle-Ile-Ser-c(D-Thr-Ala-Lys-Ile)] |  | 
5 | 0.13 (≈ 0.102 µM) | 8 (≈ 6.29 µM) | 62 | >32 | 0.03 (≈ 0.0236 µM) |  | CC[C@H](C)[C@H](NC(=O)[C@@H](Cc1ccccc1)NC)C(=O)N[C@@H](CO)C(=O)N[C@H](CCC(N)=O)C(=O)N[C@@H](C(=O)N[C@H](C(=O)N[C@@H](CO)C(=O)N[C@H]1C(=O)N[C@@H](C)C(=O)N[C@@H](CCCCNC(=N)NC)C(=O)N[C@@H]([C@@H](C)CC)C(=O)O[C@H]1C)[C@@H](C)CC)[C@@H](C)CC [Compound 6, H-D-MePhe-Ile-Ser-D-Gln-D-aIle-Ile-Ser-c(D-Thr-Ala-Har(Me)-Ile)] |  | 
6 | 0.13 (≈ 0.106 µM) | 16 (≈ 13 µM) | 123 | >32 | 0.12 (≈ 0.0975 µM) |  | CC[C@H](C)[C@H](NC(=O)[C@@H](Cc1ccccc1)NC)C(=O)N[C@@H](CO)C(=O)N[C@H](CCC(N)=O)C(=O)N[C@@H](C(=O)N[C@H](C(=O)N[C@@H](CO)C(=O)N[C@H]1C(=O)N[C@@H](C)C(=O)N[C@@H](CCCCCN)C(=O)N[C@@H]([C@@H](C)CC)C(=O)O[C@H]1C)[C@@H](C)CC)[C@@H](C)CC [Compound 9, H-D-MePhe-Ile-Ser-D-Gln-D-aIle-Ile-Ser-c(D-Thr-Ala-hLys-Ile)] |  | 
7 | 0.13 (≈ 0.0988 µM) | 32 (≈ 24.3 µM) | 246 | >32 |  | ≤0.03 to 0.06 | CC[C@H](C)[C@H](NC(=O)[C@@H](Cc1ccccc1)NC)C(=O)N[C@@H](Cc1c[nH]c2ccccc12)C(=O)N[C@H](CCC(N)=O)C(=O)N[C@@H](C(=O)N[C@H](C(=O)N[C@@H](CO)C(=O)N[C@H]1C(=O)N[C@@H](C)C(=O)N[C@@H](CCCCN)C(=O)N[C@@H]([C@@H](C)CC)C(=O)O[C@H]1C)[C@@H](C)CC)[C@@H](C)CC [Compound 7, H-D-MePhe-Ile-Trp-D-Gln-D-aIle-Ile-Ser-c(D-Thr-Ala-Lys-Ile)] (H-[dNMeF]IW[dQ][d(aIle)]IS[dT]AKI; ester 8-C) |  | 
8 | 0.25 (≈ 0.196 µM) | 16 (≈ 12.6 µM) | 64 |  |  |  | CC[C@H](C)[C@H](NC(=O)[C@@H](Cc1ccccc1)NC)C(=O)N[C@@H](CO)C(=O)N[C@H](Cc1c[nH]c2ccccc12)C(=O)N[C@@H](C(=O)N[C@H](C(=O)N[C@@H](CO)C(=O)N[C@H]1C(=O)N[C@@H](C)C(=O)N[C@@H](CCCCN)C(=O)N[C@@H]([C@@H](C)CC)C(=O)O[C@H]1C)[C@@H](C)CC)[C@@H](C)CC [Compound 13, H-D-MePhe-Ile-Ser-D-Trp-D-aIle-Ile-Ser-c(D-Thr-Ala-Lys-Ile)] (H-[dNMeF]IS[dW][d(aIle)]IS[dT]AKI; ester 8-C) |  | 
9 | 0.19 (≈ 0.156 µM) | 16 (≈ 13.2 µM) | 84 |  |  |  | CC[C@H](C)[C@H](NC(=O)[C@H](NC(=O)[C@@H](CCC(N)=O)NC(=O)[C@H](CO)NC(=O)[C@H](CC(C)C)NC(=O)[C@@H](Cc1ccccc1)NC)[C@@H](C)CC)C(=O)N[C@@H](CO)C(=O)N[C@H]1C(=O)N[C@@H](C)C(=O)N[C@@H](CCCCN)C(=O)N[C@@H]([C@@H](C)CC)C(=O)O[C@H]1C [Compound 10, H-D-MePhe-Leu-Ser-D-Gln-D-aIle-Ile-Ser-c(D-Thr-Ala-Lys-Ile)] (H-[dNMeF]LS[dQ][d(aIle)]IS[dT]AKI; ester 8-C) |  | 

Row | Structure (SMILES) | MIC S. aureus (S.aureus) [µg/mL] | MIC E. coli (E.coli) [µg/mL] | MIC ratio Coli/Staph (E.coli) | MIC B. fragilis (B. fragilis) [µg/mL] | MIC C. difficile (C. difficile) [µg/mL] | MIC C. difficile (C. difficile; anaerobic broth microdilution, read after 44-48 hours, Example 17b) [µg/mL] | MIC S. aureus (S.aureus; [1]) [µg/mL] | MIC E. coli (E.coli; [1]) [µg/mL]
10 | CC[C@H](C)[C@H](NC(=O)[C@@H](Cc1ccccc1)NC)C(=O)N[C@@H](CCCCN)C(=O)N[C@H](CCC(N)=O)C(=O)N[C@@H](C(=O)N[C@H](C(=O)N[C@@H](CO)C(=O)N[C@H]1C(=O)N[C@@H](C)C(=O)N[C@@H](CCCCN)C(=O)N[C@@H]([C@@H](C)CC)C(=O)O[C@H]1C)[C@@H](C)CC)[C@@H](C)CC [Compound 8, H-D-MePhe-Ile-Lys-D-Gln-D-aIle-Ile-Ser-c(D-Thr-Ala-Lys-Ile)] (H-[dNMeF]IK[dQ][d(aIle)]IS[dT]AKI; ester 8-C) |  |  | 31 | >32 | 0.06 (≈ 0.0477 µM) |  | 0.13 (≈ 0.103 µM) | 4 (≈ 3.18 µM)
11 | CC[C@H](C)[C@H](NC(=O)[C@@H](Cc1ccccc1)NC)C(=O)N[C@@H](CCCCN)C(=O)N[C@H](CCC(N)=O)C(=O)N[C@@H](C(=O)N[C@H](C(=O)N[C@@H](CO)C(=O)N[C@H]1C(=O)N[C@@H](C)C(=O)N[C@@H](CCCCNC(=N)N)C(=O)N[C@@H]([C@@H](C)CC)C(=O)O[C@H]1C)[C@@H](C)CC)[C@@H](C)CC [Compound 1, H-D-MePhe-Ile-Lys-D-Gln-D-aIle-Ile-Ser-c(D-Thr-Ala-Har-Ile)] (H-[dNMeF]IK[dQ][d(aIle)]IS[dT]A[hArg]I; ester 8-C) |  |  | 67 | >32 | <0.03 |  | 0.06 (≈ 0.0462 µM) | 4 (≈ 3.08 µM)
